Values quoted from earlier work, collected in patent publication US20250375365A1, “MOUTH RESCUE RINSE AND METHODS OF REGULATING BLOOD PRESSURE” (University of Florida Research Foundation, Inc., priority 2024, published 2025).

Key:
[1] = CHX rinses, healthy subjects; some studies reported

SMILES: N=C(NCCCCCCNC(=N)NC(=N)Nc1ccc(Cl)cc1)NC(=N)Nc1ccc(Cl)cc1.O=C(O)[C@H](O)[C@@H](O)[C@H](O)[C@H](O)CO.O=C(O)[C@H](O)[C@@H](O)[C@H](O)[C@H](O)CO [CHX, chlorhexidine gluconate]
- blood pressure values versus controls [1]: higher blood pressure values
- reduction of oral microbiome associated with oral nitrate production (oral microbiome; one-week CHX course): significantly impact the reduction of oral microbiome
- bacterial species associated with oral inflammation (oral microbiome; oral antiseptic mouthwash): effectively reduced bacterial species
